Columns and labels:
Assay type in all cases: biochemical
Conditions in all cases: Caliper assay at 1 mM ATP
TYK2 = TYK2 (Homo sapiens (Human), UniProt P29597); assay: JAK Caliper Enzyme Assay at 1 mM ATP (TYK2)
JAK2 = JAK2 (Homo sapiens (Human), UniProt O60674); assay: JAK Caliper Enzyme Assay at 1 mM ATP (JAK2)
JAK3 = JAK3 (Homo sapiens (Human), UniProt P52333); assay: JAK Caliper Enzyme Assay at 1 mM ATP (JAK3)
JAK1 = JAK1 (Homo sapiens (Human), UniProt P23458); assay: JAK Caliper Enzyme Assay at 1 mM ATP (JAK1)
JAK1, sequence (P23458 whole entry, species assumed): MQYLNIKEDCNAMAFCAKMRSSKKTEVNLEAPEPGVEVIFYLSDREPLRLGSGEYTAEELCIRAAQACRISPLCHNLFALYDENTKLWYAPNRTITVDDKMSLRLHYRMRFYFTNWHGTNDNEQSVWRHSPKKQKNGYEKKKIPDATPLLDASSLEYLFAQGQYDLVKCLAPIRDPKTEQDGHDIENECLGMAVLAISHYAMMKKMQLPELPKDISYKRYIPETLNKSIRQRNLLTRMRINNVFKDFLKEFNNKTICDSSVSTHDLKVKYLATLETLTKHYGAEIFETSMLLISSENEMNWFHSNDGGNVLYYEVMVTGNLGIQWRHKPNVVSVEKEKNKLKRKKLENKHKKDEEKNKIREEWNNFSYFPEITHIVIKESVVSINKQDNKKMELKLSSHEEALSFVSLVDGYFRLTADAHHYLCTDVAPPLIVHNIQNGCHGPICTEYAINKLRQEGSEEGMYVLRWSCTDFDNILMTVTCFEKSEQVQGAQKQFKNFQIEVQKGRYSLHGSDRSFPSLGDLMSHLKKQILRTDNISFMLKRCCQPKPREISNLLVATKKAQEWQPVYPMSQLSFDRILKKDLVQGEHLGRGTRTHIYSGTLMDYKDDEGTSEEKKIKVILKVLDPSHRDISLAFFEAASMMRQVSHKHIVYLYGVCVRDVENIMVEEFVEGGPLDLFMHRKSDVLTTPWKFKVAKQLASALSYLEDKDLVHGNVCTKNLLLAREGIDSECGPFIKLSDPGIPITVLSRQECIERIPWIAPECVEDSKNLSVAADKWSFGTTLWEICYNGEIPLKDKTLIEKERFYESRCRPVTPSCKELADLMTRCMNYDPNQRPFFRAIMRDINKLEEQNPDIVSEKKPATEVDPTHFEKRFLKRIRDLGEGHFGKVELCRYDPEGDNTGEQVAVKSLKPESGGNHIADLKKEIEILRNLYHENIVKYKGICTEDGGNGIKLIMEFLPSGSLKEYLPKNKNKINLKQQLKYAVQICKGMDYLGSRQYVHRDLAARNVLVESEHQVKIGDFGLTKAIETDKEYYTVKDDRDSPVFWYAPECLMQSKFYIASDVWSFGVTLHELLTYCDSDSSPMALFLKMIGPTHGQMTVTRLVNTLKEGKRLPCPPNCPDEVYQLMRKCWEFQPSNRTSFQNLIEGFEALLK

TYK2, sequence (P29597 whole entry, species assumed): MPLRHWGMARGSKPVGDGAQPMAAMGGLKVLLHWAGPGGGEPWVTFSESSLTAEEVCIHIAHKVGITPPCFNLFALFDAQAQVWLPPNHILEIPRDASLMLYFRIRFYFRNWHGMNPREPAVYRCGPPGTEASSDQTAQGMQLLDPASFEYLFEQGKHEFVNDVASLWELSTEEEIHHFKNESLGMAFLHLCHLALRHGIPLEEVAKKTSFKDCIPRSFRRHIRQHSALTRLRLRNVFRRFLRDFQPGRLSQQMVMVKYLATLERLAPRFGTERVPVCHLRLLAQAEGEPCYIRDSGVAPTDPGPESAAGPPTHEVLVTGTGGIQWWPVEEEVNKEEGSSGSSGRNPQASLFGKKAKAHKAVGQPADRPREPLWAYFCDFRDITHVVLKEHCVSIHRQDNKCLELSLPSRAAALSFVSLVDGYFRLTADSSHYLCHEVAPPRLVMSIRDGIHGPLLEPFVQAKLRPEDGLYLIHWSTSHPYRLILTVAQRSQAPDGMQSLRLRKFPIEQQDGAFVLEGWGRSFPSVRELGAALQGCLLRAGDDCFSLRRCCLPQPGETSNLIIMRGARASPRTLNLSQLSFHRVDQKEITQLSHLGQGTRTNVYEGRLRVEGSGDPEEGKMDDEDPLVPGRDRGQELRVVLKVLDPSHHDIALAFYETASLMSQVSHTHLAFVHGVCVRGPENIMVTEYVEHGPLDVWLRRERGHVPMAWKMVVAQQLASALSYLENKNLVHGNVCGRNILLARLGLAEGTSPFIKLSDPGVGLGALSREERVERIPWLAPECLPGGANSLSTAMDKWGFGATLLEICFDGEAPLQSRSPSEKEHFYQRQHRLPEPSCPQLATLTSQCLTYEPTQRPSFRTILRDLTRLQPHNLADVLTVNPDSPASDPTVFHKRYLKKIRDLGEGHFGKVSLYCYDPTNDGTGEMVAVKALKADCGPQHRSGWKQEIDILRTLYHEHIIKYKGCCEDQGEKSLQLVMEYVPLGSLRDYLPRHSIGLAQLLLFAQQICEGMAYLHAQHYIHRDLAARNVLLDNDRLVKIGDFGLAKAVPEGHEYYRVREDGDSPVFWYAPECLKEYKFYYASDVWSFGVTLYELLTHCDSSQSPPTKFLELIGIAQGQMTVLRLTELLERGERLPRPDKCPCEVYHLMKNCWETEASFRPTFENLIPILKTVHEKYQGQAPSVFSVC
JAK3, sequence (P52333 whole entry, species assumed): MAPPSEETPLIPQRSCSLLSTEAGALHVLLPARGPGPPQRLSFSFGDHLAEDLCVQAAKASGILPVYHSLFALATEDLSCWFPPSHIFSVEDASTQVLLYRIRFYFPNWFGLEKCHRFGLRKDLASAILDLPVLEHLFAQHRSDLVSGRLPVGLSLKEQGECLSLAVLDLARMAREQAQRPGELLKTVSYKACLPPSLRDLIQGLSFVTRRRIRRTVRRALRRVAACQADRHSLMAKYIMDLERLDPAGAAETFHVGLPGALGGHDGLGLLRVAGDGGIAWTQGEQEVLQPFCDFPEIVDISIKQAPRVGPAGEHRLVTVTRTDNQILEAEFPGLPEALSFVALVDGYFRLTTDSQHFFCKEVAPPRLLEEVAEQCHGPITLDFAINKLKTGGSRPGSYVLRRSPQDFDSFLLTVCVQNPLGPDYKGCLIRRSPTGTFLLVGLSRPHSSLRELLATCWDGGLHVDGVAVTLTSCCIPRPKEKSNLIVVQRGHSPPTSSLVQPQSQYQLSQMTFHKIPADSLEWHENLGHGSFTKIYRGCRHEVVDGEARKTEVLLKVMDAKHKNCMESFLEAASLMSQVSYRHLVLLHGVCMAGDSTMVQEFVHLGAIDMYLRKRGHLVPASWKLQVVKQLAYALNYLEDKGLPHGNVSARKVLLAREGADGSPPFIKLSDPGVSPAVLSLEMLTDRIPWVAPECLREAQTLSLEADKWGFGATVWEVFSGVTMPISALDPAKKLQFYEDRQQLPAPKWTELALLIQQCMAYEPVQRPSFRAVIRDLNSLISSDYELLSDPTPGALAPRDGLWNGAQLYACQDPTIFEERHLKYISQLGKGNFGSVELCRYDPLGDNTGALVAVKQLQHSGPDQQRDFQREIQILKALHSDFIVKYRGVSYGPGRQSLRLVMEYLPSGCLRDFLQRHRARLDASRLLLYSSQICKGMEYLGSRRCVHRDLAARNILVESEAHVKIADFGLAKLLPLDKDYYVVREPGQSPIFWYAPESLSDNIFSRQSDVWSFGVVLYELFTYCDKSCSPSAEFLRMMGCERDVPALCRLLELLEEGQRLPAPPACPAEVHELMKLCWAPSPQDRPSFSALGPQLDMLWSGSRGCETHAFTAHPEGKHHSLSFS
JAK2, sequence (O60674 whole entry, species assumed): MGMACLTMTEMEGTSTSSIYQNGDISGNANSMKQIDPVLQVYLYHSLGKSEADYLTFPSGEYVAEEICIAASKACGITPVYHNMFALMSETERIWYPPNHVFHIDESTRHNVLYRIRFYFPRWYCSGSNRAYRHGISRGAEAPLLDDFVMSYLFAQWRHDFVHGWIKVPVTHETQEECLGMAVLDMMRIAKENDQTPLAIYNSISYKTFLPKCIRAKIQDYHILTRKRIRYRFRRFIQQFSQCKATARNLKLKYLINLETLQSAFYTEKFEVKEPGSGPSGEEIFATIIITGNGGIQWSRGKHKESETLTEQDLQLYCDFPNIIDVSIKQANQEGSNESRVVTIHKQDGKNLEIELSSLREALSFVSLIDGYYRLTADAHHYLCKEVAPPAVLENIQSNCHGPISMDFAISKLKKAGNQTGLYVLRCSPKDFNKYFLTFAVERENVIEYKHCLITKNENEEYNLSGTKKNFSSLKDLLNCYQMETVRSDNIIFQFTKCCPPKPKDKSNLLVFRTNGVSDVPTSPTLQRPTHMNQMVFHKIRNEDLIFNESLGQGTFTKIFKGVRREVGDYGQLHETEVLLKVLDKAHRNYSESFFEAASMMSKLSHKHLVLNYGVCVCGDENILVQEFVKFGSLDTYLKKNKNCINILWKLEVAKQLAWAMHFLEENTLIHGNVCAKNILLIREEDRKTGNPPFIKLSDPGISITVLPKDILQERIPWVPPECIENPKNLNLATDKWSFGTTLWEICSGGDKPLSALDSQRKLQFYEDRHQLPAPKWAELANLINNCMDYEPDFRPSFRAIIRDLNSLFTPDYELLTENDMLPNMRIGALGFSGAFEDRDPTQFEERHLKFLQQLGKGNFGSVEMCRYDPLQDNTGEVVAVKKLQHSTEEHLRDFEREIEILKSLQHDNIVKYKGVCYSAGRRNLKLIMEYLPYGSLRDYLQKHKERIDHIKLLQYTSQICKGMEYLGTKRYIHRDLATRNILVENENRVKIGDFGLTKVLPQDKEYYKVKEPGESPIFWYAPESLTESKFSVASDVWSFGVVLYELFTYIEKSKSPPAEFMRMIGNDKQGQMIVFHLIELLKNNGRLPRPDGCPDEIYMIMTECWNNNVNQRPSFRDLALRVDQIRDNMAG

Row | IC50 (TYK2) [µM] | IC50 (JAK2) [µM] | IC50 (JAK3) [µM] | IC50 (JAK1) [µM] | SMILES
1 | 0.93 | 0.0394 | 0.0899 | 0.0059 | CN(c1ncc(F)cc1CNc1nc(-c2cc(F)c(O)cc2CC(F)(F)F)cc2[nH]nc(C(N)=O)c12)S(C)(=O)=O [Example 78, 6-[5-Fluoro-4-hydroxy-2-(2,2,2-trifluoroethyl)phenyl]-4-[({5-fluoro-2-[methyl(methyl-sulfonyl)amino]pyridin-3-yl}methyl)amino]-1H-pyrazolo[4,3-c]pyridine-3-carboxamide]
2 | 0.698 | 0.0591 | 0.175 | 0.0107 | CCN(c1ncc(F)cc1CNc1nc(-c2cc(F)c(O)cc2CC(F)(F)F)cc2[nH]nc(C(N)=O)c12)S(C)(=O)=O [Example 79, 4-[({2-[ethyl(methylsulfonyl)amino]-5-fluoropyridin-3-yl}methyl)amino]-6-[5-fluoro-4-hydroxy-2-(2,2,2-trifluoroethyl)phenyl]-1H-pyrazolo[4,3-c]pyridine-3-carboxamide]
3 | 0.167 | 0.0162 | 0.0492 | 0.0029 | CCN(c1nccnc1CNc1nc(-c2cc(F)c(O)cc2CC(F)(F)F)cc2[nH]nc(C(N)=O)c12)S(C)(=O)=O [Example 80, 4-[({3-[ethyl(methylsulfonyl)amino]pyrazin-2-yl}methyl)amino]-6-[5-fluoro-4-hydroxy-2-(2,2,2-trifluoroethyl)phenyl]-1H-pyrazolo[4,3-c]pyridine-3-carboxamide]
4 | 0.139 | 0.0633 | 0.201 | 0.0121 | CCN(c1ccc(F)cc1CNc1nc(-c2cc(F)c(O)cc2CC(F)(F)F)cc2[nH]nc(C(N)=O)c12)S(C)(=O)=O [Example 83, 4-((2-(N-ethylmethylsulfonamido)-5-fluorobenzyl)amino)-6-(5-fluoro-4-hydroxy-2-(2,2,2-trifluoro-ethyl)phenyl)-1H-pyrazolo[4,3-c]pyridine-3-carboxamide]
5 | 0.88 | 0.142 | 0.537 | 0.0276 | CCN(c1ccc(Cl)cc1CNc1nc(-c2cc(F)c(O)cc2CC(F)(F)F)cc2[nH]nc(C(N)=O)c12)S(C)(=O)=O [Example 84, 4-((5-chloro-2-(N-ethylmethylsulfonamido)benzyl)amino)-6-(5-fluoro-4-hydroxy-2-(2,2,2-trifluoro-ethyl)phenyl)-1H-pyrazolo[4,3-c]pyridine-3-carboxamide]
6 | 0.0814 | 0.0472 | 0.156 | 0.0078 | CCS(=O)(=O)N(C)c1ccccc1CNc1nc(-c2cc(F)c(O)cc2CC(F)(F)F)cc2[nH]nc(C(N)=O)c12 [Example 85, 6-(5-fluoro-4-hydroxy-2-(2,2,2-trifluoroethyl)phenyl)-4-((2-(N-methylethyl-sulfonamido)benzyl)-amino)-1H-pyrazolo[4,3-c]pyridine-3-carboxamide]
7 | 2.49 | 0.0878 | 0.133 | 0.0306 | CCN(c1ncc(C)cc1CNc1nc(-c2cc(F)c(O)cc2CC(F)(F)F)cc2[nH]nc(C(N)=O)c12)S(C)(=O)=O [Example 87, 4-[({2-[ethyl(methylsulfonyl)amino]-5-methylpyridin-3-yl}methyl)amino]-6-[5-fluoro-4-hydroxy-2-(2,2,2-trifluoroethyl)phenyl]-1H-pyrazolo[4,3-c]pyridine-3-carboxamide]
8 | 0.917 | 0.0571 | 0.212 | 0.0146 | CN(c1ccc(Cl)cc1CNc1nc(-c2cc(F)c(O)cc2CC(F)(F)F)cc2[nH]nc(C(N)=O)c12)S(C)(=O)=O [Example 89, 4-({5-chloro-2-[methyl(methylsulfonyl)amino]benzyl}amino)-6-[5-fluoro-4-hydroxy-2-(2,2,2-trifluoroethyl)phenyl]-1H-pyrazolo[4,3-c]pyridine-3-carboxamide]
9 | 0.0232 | 0.0181 | 0.0771 | 0.0027 | CCN(c1ccccc1CNc1nc(-c2cc(F)c(O)cc2CC(F)(F)F)cc2[nH]nc(C(N)=O)c12)S(C)(=O)=O [Example 90, 4-({2-[ethyl(methylsulfonyl)amino]benzyl}amino)-6-[5-fluoro-4-hydroxy-2-(2,2,2-trifluoroethyl)-phenyl]-1H-pyrazolo[4,3-c]pyridine-3-carboxamide]
10 | 0.865 | 0.128 | 0.462 | 0.0287 | CCN(c1ccc(C)cc1CNc1nc(-c2cc(F)c(O)cc2CC(F)(F)F)cc2[nH]nc(C(N)=O)c12)S(C)(=O)=O [Example 91, 4-({2-[ethyl(methylsulfonyl)amino]-5-methylbenzyl}amino)-6-[5-fluoro-4-hydroxy-2-(2,2,2-trifluoroethyl)phenyl]-1H-pyrazolo[4,3-c]pyridine-3-carboxamide]
11 | 0.0145 | 0.0135 | 0.0457 | 0.0021 | CN(c1ccc(O)cc1CNc1nc(-c2cc(F)c(O)cc2CC(F)(F)F)cc2[nH]nc(C(N)=O)c12)S(C)(=O)=O [Example 92, 6-[5-Fluoro-4-hydroxy-2-(2,2,2-trifluoroethyl)phenyl]-4-({5-hydroxy-2-[methyl(methylsulfonyl)amino]benzyl}amino)-1H-pyrazolo[4,3-c]pyridine-3-carboxamide]
12 | 0.0139 | 0.0084 | 0.0274 | 0.002 | CCc1cc(O)c(F)cc1-c1nc(NCc2ccccc2N(C)S(C)(=O)=O)c2c(C(=O)NC)n[nH]c2n1 [Example 93, 6-(2-Ethyl-5-fluoro-4-hydroxyphenyl)-N-methyl-4-((2-(N-methylmethylsulfonamido)benzyl)amino)-1H-pyrazolo[3,4-d]pyrimidine-3-carboxamide]
13 | 0.0893 | 0.027 | 0.0824 | 0.0067 | CCc1cc(O)c(F)cc1-c1nc(NCc2ccccc2N(C)S(=O)(=O)c2ccccc2)c2c(C(N)=O)n[nH]c2n1 [Example 95, 6-(2-Ethyl-5-fluoro-4-hydroxyphenyl)-4-((2-(N-methylphenylsulfonamido)benzyl)amino)-1H-pyrazolo[3,4-d]pyrimidine-3-carboxamide]
14 | 0.349 | 0.031 | 0.0926 | 0.005 | CCN(c1ccccc1CNc1nc(-c2cc(F)c(O)cc2CC(F)(F)F)nc2[nH]nc(C(=O)NC)c12)S(C)(=O)=O [Example 103, 4-((2-(N-ethylmethylsulfonamido)-benzyl)amino)-6-(5-fluoro-4-hydroxy-2-(2,2,2-trifluoroethyl)phenyl)-N-methyl-1H-pyrazolo[3,4-d]pyrimidine-3-carboxamide]
15 | 0.674 | 0.0312 | 0.107 | 0.0064 | CNC(=O)c1n[nH]c2nc(-c3cc(F)c(O)cc3CC(F)(F)F)nc(NCc3ccccc3N(C)S(N)(=O)=O)c12 [Example 109, 6-(5-Fluoro-4-hydroxy-2-(2,2,2-trifluoroethyl)phenyl)-N-methyl-4-((2-(methyl(sulfamoyl)amino)benzyl)amino)-1H-pyrazolo[3,4-d]pyrimidine-3-carboxamide]
16 | 0.035 | 0.0269 | 0.12 | 0.0054 | CNC(=O)c1n[nH]c2nc(-c3cc(F)c(O)cc3CC(F)(F)F)nc(NCc3ccccc3N(C)S(=O)(=O)NC)c12 [Example 110, 6-(5-Fluoro-4-hydroxy-2-(2,2,2-trifluoroethyl)phenyl)-N-methyl-4-((2-(methyl(N-methylsulfamoyl)amino)benzyl)amino)-1H-pyrazolo[3,4-d]pyrimidine-3-carboxamide]

Source: patent publication US9518052B2, “Pyrazolopyridines and pyrazolopyrimidines” (Pfizer Inc., priority 2014, dated 2016)
